In patent US11691962B2 (eXIthera Pharmaceuticals, Inc., priority 2018, dated 2023):

Assays:
Type in all cases: biochemical
Thrombin = Thrombin (Homo sapiens (Human), UniProt P00734); assay: Dose response assay for protease inhibitors: thrombin; details: selectivity, thrombin over Factor XIa
Procedure, shortened: (§1)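 Fluorogenic AMC-peptide cleavage in 20 mM Hepes pH 7.4, 150 mM NaCl, 0.02% Tween 20; 100 μM stock substrate dilution (Glp-Pro-Arg-AMC for thrombin/trypsin; Pro-Phe-Arg-AMC or Boc-Leu-Gly-Arg-AMC for Factor Xa). Enzyme diluted to 0.5 nM, added last to two-fold compound series; kinetic read at 30° C, 30 min (Factor Xa 60 min); IC50 fitted.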

Factor XIa = Factor XIa (Homo sapiens (Human), UniProt P03951); assay: Factor XIa enzyme inhibition assay (dose response, fluorogenic AMC substrate); details: read-out: hFXIa IC50
Procedure, shortened: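 Human FXIa at 0.25 nM final with 50 μM final PyroGlu-Pro-Arg-AMC in 20 mM Hepes pH 7.4, 150 mM NaCl, 0.02% Tween 20. Two-fold serial compound dilutions; fluorescence read every minute for 30 min at 30° C. IC50 from a four-parameter Hill fit.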

Factor Xa = Factor Xa (Homo sapiens (Human), UniProt P00742); assay: Dose response assay for protease inhibitors: Factor Xa; details: selectivity, Factor Xa over Factor XIa
Procedure, shortened: as §1

Trypsin = assay: Dose response assay for protease inhibitors: trypsin; details: selectivity, trypsin over Factor XIa
Procedure, shortened: as §1

Sequence of Factor XIa (P03951 388-625): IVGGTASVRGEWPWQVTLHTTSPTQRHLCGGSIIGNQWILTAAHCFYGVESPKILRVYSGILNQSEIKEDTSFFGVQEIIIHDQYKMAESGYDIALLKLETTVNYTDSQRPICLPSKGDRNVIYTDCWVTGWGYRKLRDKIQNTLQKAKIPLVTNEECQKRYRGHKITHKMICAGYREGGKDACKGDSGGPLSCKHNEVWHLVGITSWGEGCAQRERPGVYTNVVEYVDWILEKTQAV
Sequence of Factor XIa (P03951 19-387 partner): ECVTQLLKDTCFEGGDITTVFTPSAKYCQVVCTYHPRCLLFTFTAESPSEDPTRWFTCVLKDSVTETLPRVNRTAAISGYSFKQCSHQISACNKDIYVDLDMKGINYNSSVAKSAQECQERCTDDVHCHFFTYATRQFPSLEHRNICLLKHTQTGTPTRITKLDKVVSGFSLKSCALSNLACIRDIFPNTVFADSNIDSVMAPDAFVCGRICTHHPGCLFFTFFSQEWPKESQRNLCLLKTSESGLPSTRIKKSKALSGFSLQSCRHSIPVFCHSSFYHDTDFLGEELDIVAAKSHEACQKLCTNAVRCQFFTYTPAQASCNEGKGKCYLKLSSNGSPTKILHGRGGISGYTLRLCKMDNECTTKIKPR
Sequence of Factor Xa (P00742 235-488): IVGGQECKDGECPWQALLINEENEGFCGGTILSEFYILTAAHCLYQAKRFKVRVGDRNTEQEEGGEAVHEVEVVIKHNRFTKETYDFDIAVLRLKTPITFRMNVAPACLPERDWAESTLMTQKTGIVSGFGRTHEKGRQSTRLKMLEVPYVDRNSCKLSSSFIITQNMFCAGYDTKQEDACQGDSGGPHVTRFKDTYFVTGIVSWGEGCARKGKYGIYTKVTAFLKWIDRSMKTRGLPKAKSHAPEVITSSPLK
Sequence of Factor Xa (P00742 41-179 partner): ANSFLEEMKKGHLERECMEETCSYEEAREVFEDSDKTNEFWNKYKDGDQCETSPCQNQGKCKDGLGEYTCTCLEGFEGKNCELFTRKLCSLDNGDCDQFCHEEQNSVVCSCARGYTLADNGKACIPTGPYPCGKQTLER

Ratio: Thrombin/FXIa (Thrombin) | IC50 (Factor XIa) | Ratio: FXa/FXIa (Factor Xa) | Molecule | Ratio: Trypsin/FXIa (Trypsin)
H (“H” indicates 101-1000) | 10 to 100 nM | H (“H” indicates 101-1000) | CC[C@@H](NC(=O)N1C(=O)[C@H](Cc2ccnc(N)c2)[C@H]1C(=O)N(C)c1nccn1C)c1ccc(OC(F)(F)F)cc1 [Compound 1-97, (2S,3R)-3-((2-aminopyridin-4-yl)methyl)-N2-(1-methyl-1H-imidazol-2-yl)-N1-((R)-1-(4-trifluoromethoxyphenyl)propyl)-N2-methyl-4-oxoazetidine-1,2-dicarboxamide] | G (“G” indicates 1-100)
H (“H” indicates 101-1000) | < 10 nM | I (“I” indicates > 500) | CC[C@@H](NC(=O)N1C(=O)[C@H](Cc2cc(C)nc(N)c2)[C@H]1C(=O)N(C)c1nccn1C)c1ccc(F)cc1 [Compound 1-106, (2S,3R)-3-((2-amino-6-methylpyridin-4-yl)methyl)-N2-(1-methyl-1H-imidazol-2-yl)-N1-((R)-1-(4-fluorophenyl)propyl)-N2-methyl-4-oxoazetidine-1,2-dicarboxamide] | G (“G” indicates 1-100)
H (“H” indicates 101-1000) | < 10 nM | I (“I” indicates > 500) | CC[C@@H](NC(=O)N1C(=O)[C@H](Cc2ccnc(N)c2)[C@H]1C(=O)N(C)c1nccn1C)c1ccc(F)c(C)c1F [Compound 1-194, (2S,3R)-3-((2-aminopyridin-4-yl)methyl)-N2-(1-methyl-1H-imidazol-2-yl)-N1-((R)-1-(2,4-difluoro-3-methylphenyl)propyl)-N2-methyl-4-oxoazetidine-1,2-dicarboxamide] | H (“H” indicates 101-1000)
H (“H” indicates 101-1000) | < 10 nM | H (“H” indicates 101-1000) | CC[C@@H](NC(=O)N1C(=O)[C@H](Cc2ccnc(N)c2)[C@H]1C(=O)N(C)c1cncs1)c1ccccc1 [Compound 1-12, (2S,3R)-3-((2-aminopyridin-4-yl)methyl)-N2-(5-thiazolyl)-N1-((R)-1-phenylpropyl)-N2-methyl-4-oxoazetidine-1,2-dicarboxamide] | G (“G” indicates 1-100)
H (“H” indicates 101-1000) | < 10 nM | G (“G” indicates 1-100) | CC[C@@H](NC(=O)N1C(=O)[C@H](Cc2ccnc(N)c2)[C@H]1C(=O)N(C)c1cccs1)c1cccc(Cl)c1 [Compound 1-28, (2S,3R)-3-((2-aminopyridin-4-yl)methyl)-N2-(thiophen-2-yl)-N1-((R)-1-(3-chlorophenyl)propyl)-N2-methyl-4-oxoazetidine-1,2-dicarboxamide] | G (“G” indicates 1-100)
H (“H” indicates 101-1000) | 10 to 100 nM | I (“I” indicates > 500) | CC[C@@H](NC(=O)N1C(=O)[C@H](Cc2cc(C)nc(N)c2)[C@H]1C(=O)N(C)c1nccn1C)c1ccc(Cl)cc1 [Compound 1-105, (2S,3R)-3-((2-amino-6-methylpyridin-4-yl)methyl)-N2-(1-methyl-1H-imidazol-2-yl)-N1-((R)-1-(4-chlorophenyl)propyl)-N2-methyl-4-oxoazetidine-1,2-dicarboxamide] | G (“G” indicates 1-100)
I (“I” indicates > 500) | < 10 nM | I (“I” indicates > 500) | CC[C@@H](NC(=O)N1C(=O)[C@H](Cc2ccnc(N)c2)[C@H]1C(=O)N(C)c1ccn(C)n1)c1cc(F)c(F)c(F)c1 [Compound 1-197, (2S,3R)-3-((2-aminopyridin-4-yl)methyl)-N2-(1-methyl-1H-pyrazol-3-yl)-N1-((R)-1-(3,4,5-trifluorophenyl)propyl)-N2-methyl-4-oxoazetidine-1,2-dicarboxamide] | H (“H” indicates 101-1000)
H (“H” indicates 101-1000) | < 10 nM | H (“H” indicates 101-1000) | CC[C@@H](NC(=O)N1C(=O)[C@H](Cc2cc(C)nc(N)c2)[C@H]1C(=O)N(C)c1nccn1C)c1ccc(C)c(Cl)c1 [Compound 1-113, (2S,3R)-3-((2-amino-6-methylpyridin-4-yl)methyl)-N2-(1-methyl-1H-imidazol-2-yl)-N1-((R)-1-(3-chloro-4-methylphenyl)propyl)-N2-methyl-4-oxoazetidine-1,2-dicarboxamide] | G (“G” indicates 1-100)
H (“H” indicates 101-1000) | < 10 nM | H (“H” indicates 101-1000) | CC[C@@H](NC(=O)N1C(=O)[C@H](Cc2ccnc(N)c2)[C@H]1C(=O)N(C)c1ccn(C)n1)c1ccc(C)c(F)c1 [Compound 1-136, (2S,3R)-3-((2-aminopyridin-4-yl)methyl)-N2-(1-methyl-1H-pyrazol-3-yl)-N1-((R)-1-(3-fluoro-4-methylphenyl)propyl)-N2-methyl-4-oxoazetidine-1,2-dicarboxamide] | G (“G” indicates 1-100)
H (“H” indicates 101-1000) | < 10 nM | I (“I” indicates > 500) | CC[C@@H](NC(=O)N1C(=O)[C@H](Cc2ccnc(N)c2)[C@H]1C(=O)N(C)c1nccn1C)c1cc(C)ccc1F [Compound 1-102, (2S,3R)-3-((2-aminopyridin-4-yl)methyl)-N2-(1-methyl-1H-imidazol-2-yl)-N1-((R)-1-(2-fluoro-5-methylphenyl)propyl)-N2-methyl-4-oxoazetidine-1,2-dicarboxamide] | G (“G” indicates 1-100)
G (“G” indicates 1-100) | 10 to 100 nM | H (“H” indicates 101-1000) | CC[C@@H](NC(=O)N1C(=O)[C@H](Cc2cc(C)nc(NC)c2)[C@H]1C(=O)N(C)c1cn(C)cn1)c1ccccc1 [Compound 1-72, (2S,3R)-3-((2-methylamino-6-methylpyridin-4-yl)methyl)-N2-(1-methyl-1H-imidazol-4-yl)-N1-((R)-1-phenylpropyl)-N2-methyl-4-oxoazetidine-1,2-dicarboxamide] | G (“G” indicates 1-100)
H (“H” indicates 101-1000) | < 10 nM | I (“I” indicates > 500) | CC[C@@H](NC(=O)N1C(=O)[C@H](Cc2ccnc(N)c2)[C@H]1C(=O)N(C)c1ccn(C)n1)c1ccc(F)c(C)c1F [Compound 1-198, (2S,3R)-3-((2-aminopyridin-4-yl)methyl)-N2-(1-methyl-1H-pyrazol-3-yl)-N1-((R)-1-(2,4-difluoro-3-methylphenyl)propyl)-N2-methyl-4-oxoazetidine-1,2-dicarboxamide] | H (“H” indicates 101-1000)
H (“H” indicates 101-1000) | < 10 nM | I (“I” indicates > 500) | CC[C@@H](NC(=O)N1C(=O)[C@H](Cc2ccnc(N)c2)[C@H]1C(=O)N(C)c1cnn(C)c1)c1cc(F)c(F)c(F)c1 [Compound 1-199, (2S,3R)-3-((2-aminopyridin-4-yl)methyl)-N2-(1-methyl-1H-pyrazol-4-yl)-N1-((R)-1-(3,4,5-trifluorophenyl)propyl)-N2-methyl-4-oxoazetidine-1,2-dicarboxamide] | H (“H” indicates 101-1000)
H (“H” indicates 101-1000) | < 10 nM | I (“I” indicates > 500) | CN(C(=O)[C@@H]1[C@@H](Cc2ccnc(N)c2)C(=O)N1C(=O)NC(C1CCCCC1)C(F)(F)F)c1nccn1C (stereo in doubt) [Compound 1-56, (2S,3R)-3-((2-aminopyridin-4-yl)methyl)-N2-(1-methyl-1H-imidazol-2-yl)-N1-((R)-1-cyclohexyl-2,2,2-trifluoroethyl)-N2-methyl-4-oxoazetidine-1,2-dicarboxamide] | G (“G” indicates 1-100)
H (“H” indicates 101-1000) | < 10 nM | H (“H” indicates 101-1000) | CC[C@@H](NC(=O)N1C(=O)[C@H](Cc2ccnc(N)c2)[C@H]1C(=O)N(C)c1nccn1C)c1ccc(C)c(Cl)c1 [Compound 1-103, (2S,3R)-3-((2-aminopyridin-4-yl)methyl)-N2-(1-methyl-1H-imidazol-2-yl)-N1-((R)-1-(3-chloro-4-methylphenyl)propyl)-N2-methyl-4-oxoazetidine-1,2-dicarboxamide] | G (“G” indicates 1-100)
H (“H” indicates 101-1000) | 10 to 100 nM | I (“I” indicates > 500) | CC[C@@H](NC(=O)N1C(=O)[C@H](Cc2cc(C)nc(N)c2)[C@H]1C(=O)N(C)c1nccn1C)c1ccc(C)cc1 [Compound 1-107, (2S,3R)-3-((2-amino-6-methylpyridin-4-yl)methyl)-N2-(1-methyl-1H-imidazol-2-yl)-N1-((R)-1-(4-methylphenyl)propyl)-N2-methyl-4-oxoazetidine-1,2-dicarboxamide] | G (“G” indicates 1-100)

Molecule | Ratio: Thrombin/FXIa (Thrombin) | IC50 (Factor XIa) | Ratio: FXa/FXIa (Factor Xa) | Ratio: Trypsin/FXIa (Trypsin)
(2S,3R)-3-((2-aminopyridin-4-yl)methyl)-N2-(1-methyl-1H-imidazol-4-yl)-N1-((R)-1-cyclohexyl-2,2,2-trifluoroethyl)-N2-methyl-4-oxoazetidine-1,2-dicarboxamide [Compound 1-70] | G (“G” indicates 1-100) | < 10 nM | I (“I” indicates > 500) | G (“G” indicates 1-100)
